Data as given in ChEMBL document CHEMBL1134825, “Semi-synthesis of 2-deoxo- and 3-epi-paraherquamide A” (Bioorg Med Chem Lett, 2001).
The source made the active and inactive calls. The calls are words filed in the database; no cut-off is given here.

Experiments:
[1] = tested on: helminth; assay: Compound was tested for antihelminthic activity; No activity; type: functional
[2] = Lethal dose in mice was determined; type: toxicity, organism-based; settings: mouse, in vivo
[3] = Lethal dose in dog was determined; type: toxicity, organism-based, Canis lupus familiaris; settings: in vivo

SMILES | Activity [1] | LD50 [2] | LD50 [3]
CN1C(=O)[C@]23CC4C1(CN2CC[C@@]3(C)O)CC1(C(=O)Nc2c1ccc1c2OC=CC(C)(C)O1)C4(C)C (stereo partly drawn) | inactive |  | 
CN1C(=O)[C@]23C[C@@H]4C(C)(C)[C@@]5(C[C@@]41CN2CC[C@@]3(C)O)C(=O)Nc1c5ccc2c1OC=CC(C)(C)O2 [Paraherquamide A] |  | < 15 mg/kg | 0.5 mg/kg
